Data from ChEMBL document CHEMBL1201862, “PubChem BioAssay data set” (2004).
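Cells were grown in 96-well plates and exposed to each compound for 48 hours at five concentrations; endpoints were interpolated linearly between bracketing concentrations, or set to the highest concentration if not reached. GI50: concentration for 50% inhibition of growth.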 Active and inactive are the calls of the source. No stated cut-off is given here; in the data, active = GI50 up to about 1.1 µM and inactive = higher.

What was measured:
Assay in all cases: inhibition of tumour cell growth, NCI panel, 48 h
A498 = system: A498
A549 = system: A549
BT-549 = system: BT-549
DU-145 = system: DU-145
EKVX = system: EKVX
MCF7 = system: MCF7
MDA-MB-231 = system: MDA-MB-231
Malme-3M = system: Malme-3M
NCI-H522 = system: NCI-H522
OVCAR-3 = system: OVCAR-3
OVCAR-5 = system: OVCAR-5
PC-3 = system: PC-3
RXF 393 = system: RXF 393
SK-MEL-28 = system: SK-MEL-28
SK-MEL-5 = system: SK-MEL-5
SNB-75 = system: SNB-75
SR = system: SR
U-251 = system: U-251
CCRF-CEM = system: CCRF-CEM

| Structure (SMILES) | GI50 (A498) | GI50 (A549) | GI50 (BT-549) | GI50 (DU-145) | GI50 (EKVX) | GI50 (MCF7) | GI50 (MDA-MB-231) | GI50 (Malme-3M) | GI50 (NCI-H522) | GI50 (OVCAR-3) | GI50 (OVCAR-5) | GI50 (PC-3) | GI50 (RXF 393) | GI50 (SK-MEL-28) | GI50 (SK-MEL-5) | GI50 (SNB-75) | GI50 (SR) | GI50 (U-251) | GI50 (CCRF-CEM) |
| --- | --- | --- | --- | --- | --- | --- | --- | --- | --- | --- | --- | --- | --- | --- | --- | --- | --- | --- | --- |
| CCNCCC1(CC)C(=O)NC(=O)NC1=O | > 100 µM (inactive) | > 100 µM (inactive) | > 100 µM (inactive) | > 100 µM (inactive) | > 100 µM (inactive) | > 100 µM (inactive) | > 100 µM (inactive) | > 100 µM (inactive) | > 100 µM (inactive) | > 100 µM (inactive) | > 100 µM (inactive) | > 100 µM (inactive) | > 100 µM (inactive) | > 100 µM (inactive) | > 100 µM (inactive) | > 100 µM (inactive) | > 100 µM (inactive) | > 100 µM (inactive) |  |
| O=C1OC(c2ccccc2)=NC1c1ccccc1 (configuration not stated) | > 100 µM (inactive) | > 100 µM (inactive) | > 100 µM (inactive) | > 100 µM (inactive) | > 100 µM (inactive) | > 100 µM (inactive) | > 100 µM (inactive) |  | > 100 µM (inactive) | > 100 µM (inactive) | > 100 µM (inactive) | > 100 µM (inactive) | > 100 µM (inactive) | > 100 µM (inactive) | > 100 µM (inactive) | > 100 µM (inactive) | > 100 µM (inactive) | > 100 µM (inactive) | > 100 µM (inactive) |
| Cn1c(=O)c2c(nc3n(CCCCl)c(=O)ccn23)n(C)c1=O | > 100 µM (inactive) | > 100 µM (inactive) | > 100 µM (inactive) | > 100 µM (inactive) | > 100 µM (inactive) | > 100 µM (inactive) | > 100 µM (inactive) |  | > 100 µM (inactive) | > 100 µM (inactive) | > 100 µM (inactive) | > 100 µM (inactive) | > 100 µM (inactive) | > 100 µM (inactive) | > 100 µM (inactive) | > 100 µM (inactive) | > 100 µM (inactive) | > 100 µM (inactive) | > 100 µM (inactive) |
| C/C(=N\NC(=O)c1ccccc1O)c1cccc(/C(C)=N/NC(=O)c2ccccc2O)n1 | 37.8 µM (inactive) | 9.23 µM (inactive) | > 39.4 µM (inactive) | 13.3 µM (inactive) | 13.8 µM (inactive) | 26.2 µM (inactive) | 19.4 µM (inactive) | 10.6 µM (inactive) |  |  |  | 7.1 µM (inactive) | 8.55 µM (inactive) |  | 6.97 µM (inactive) | 12.1 µM (inactive) | 1.89 µM (inactive) |  |  |
| CN1c2ccccc2C2c3c(O)ccc(O)c3C=C([N+](=O)[O-])C21 (configuration not stated) | 1.79 µM (inactive) | 1.56 µM (inactive) | 5.36 µM (inactive) | 1.44 µM (inactive) | 1.67 µM (inactive) | 0.155 µM (active) | 0.656 µM (active) |  | 0.0621 µM (active) | 0.0329 µM (active) | 1.83 µM (inactive) | 0.388 µM (active) | 3.91 µM (inactive) | 2.03 µM (inactive) | 0.548 µM (active) | 4.7 µM (inactive) | 0.569 µM (active) | 0.65 µM (active) | 1.04 µM (active) |
| COC(=O)C1=C(O)C(C(=O)OC)[C@]2(O)[C@H](C(=O)OC)[C@H]1C[C@@H](c1ccc(Cl)cc1Cl)[C@H]2C(=O)OC (some centres not stated) | 11.4 µM (inactive) | 4.36 µM (inactive) | 6.31 µM (inactive) | 6.68 µM (inactive) | 19.1 µM (inactive) | 4.79 µM (inactive) | 19.5 µM (inactive) | 6.95 µM (inactive) |  | 5.14 µM (inactive) | 17 µM (inactive) | 8.41 µM (inactive) | 7.76 µM (inactive) | 12.4 µM (inactive) | 4.91 µM (inactive) | 8.61 µM (inactive) | 4.06 µM (inactive) | 2.72 µM (inactive) |  |
